ChEMBL document CHEMBL5505952, “Targeting SARS-CoV-2 entry processes: The promising potential and future of host-targeted small-molecule inhibitors” (Eur J Med Chem, 2024)
*1 amine or outer side, *2 acyl side, *3 side chain or, on linkers, in order; H or OH if unused. Where a SMILES comes first, the peptide text is derived from it. [ ]: non-standard residue; d: D form. The star is where a group is joined. X1 = N=C(N)NCCC[C@H](N[*:1])C(=O)c1nc2ccc(C(=O)[*:2])cc2s1; Nle = CCCC[C@H](N)C(=O)O; Cbz = O=C(OCc1ccccc1)*

Columns and labels:
Neuropilin-1 = Neuropilin-1 (Homo sapiens, UniProt O14786); experiment: Inhibition of [125I]-VEGF-A165 binding to NRP1 (unknown origin) in HUVEC cells; format: cell-based
SARS-CoV-2 [1] = experiment: Antiviral activity against SARS-CoV-2 WA1/2020 infected in human Calu-3 cells preincubated for 2 hrs followed by viral infection and measured after 48 hrs by microscopy analysis; format: functional, organism-based; details: Severe acute respiratory syndrome coronavirus 2, WA1/2020, Calu-3
SARS-CoV-2 [2] = experiment: Antiviral activity against VSV-S pseudotyped SARS-CoV-2 infected in human Calu-3 cells assessed as inhibition of viral growth; format: functional, organism-based; details: Severe acute respiratory syndrome coronavirus 2, Calu-3
[3] = biological target: T1, 1-phosphatidylinositol 3-phosphate 5-kinase (Homo sapiens, UniProt Q9Y2I7); experiment: Binding affinity to N-terminal His-tagged human PIKfyve expressed in Sf9 cells assessed as dissociation constant
SARS-CoV-2 [4] = format: functional, organism-based; details: Severe acute respiratory syndrome coronavirus 2, Vero C1008, 72 h
SARS-CoV-2 [5] = format: functional, organism-based; details: Severe acute respiratory syndrome coronavirus 2, NRC-03-nhCoV, Vero C1008, 72 h
RAW264.7 = experiment: Antiinflammatory activity in mouse RAW264.7 cells assessed as effect on LPS induced IL-12p40 level measured after 24 hrs by RT-qPCR analysis; format: functional, cell-based; details: RAW264.7, 24 h
[6] = biological target: T1, 1-phosphatidylinositol 3-phosphate 5-kinase; experiment: Inhibition of PIKfyve (unknown origin)
SARS-CoV-2 [7] = format: functional, organism-based; details: Severe acute respiratory syndrome coronavirus 2, Vero C1008, 48 h
SARS-CoV-2 [8] = experiment: microbe, parasite or virus in culture; details: Severe acute respiratory syndrome coronavirus 2, Vero C1008, 24 h
SARS-CoV-2 [9] = experiment: microbe, parasite or virus in culture; details: Severe acute respiratory syndrome coronavirus 2, Huh-7
SARS-CoV-2 [10] = format: functional, organism-based; details: Severe acute respiratory syndrome coronavirus 2, Vero C1008, 48 h; remark: listed apart in the source
SARS-CoV-2 [11] = experiment: Antiviral activity against SARS-CoV-2 USA-WA1/2020 infected in african green monkey Vero C1008 cells assessed as reduction in viral replication by qRT-PCR analysis; format: functional, organism-based; details: Severe acute respiratory syndrome coronavirus 2, USA-WA1/2020, Vero C1008
SARS-CoV-2 [12] = format: functional, organism-based; details: Severe acute respiratory syndrome coronavirus 2, Omicron B.1.617.2 delta, 293T/ACE2, 48 h
SARS-CoV-2 [13] = format: functional, organism-based; details: Severe acute respiratory syndrome coronavirus 2, USA-WA1/2020, Huh-7
SARS-CoV-2 [14] = experiment: Antiviral activity against SARS-CoV-2 USA-WA1/2020 infected in human Calu-3 cells assessed as reduction in viral replication by qRT-PCR analysis; format: functional, organism-based; details: Severe acute respiratory syndrome coronavirus 2, USA-WA1/2020, Calu-3
SARS-CoV-2 [15] = experiment: microbe, parasite or virus in culture; details: Severe acute respiratory syndrome coronavirus 2, Huh-7; remark: listed apart in the source
SARS-CoV-2 [16] = experiment: microbe, parasite or virus in culture; details: Severe acute respiratory syndrome coronavirus 2, USA-WA1/2020, Vero 76, 72 h
SARS-CoV-2 [17] = experiment: microbe, parasite or virus in culture; details: Severe acute respiratory syndrome coronavirus 2, Calu-3, 48 h
SARS-CoV-2 [18] = experiment: microbe, parasite or virus in culture; details: Severe acute respiratory syndrome coronavirus 2, Vero C1008, 24 h; remark: listed apart in the source
Procathepsin L [19] = biological target: T2, Procathepsin L (Homo sapiens, UniProt P07711); experiment: Inhibition of Cathepsin L (unknown origin)
SARS-CoV-2 [20] = format: functional, organism-based; details: Severe acute respiratory syndrome coronavirus 2, Huh-7
SARS-CoV-2 [21] = format: functional, organism-based; details: Severe acute respiratory syndrome coronavirus 2, Huh-7; remark: listed apart in the source
Procathepsin L [22] = biological target: T2, Procathepsin L; experiment: Inhibition of human recombinant Cathepsin L using Z-Phe-Arg-AMC as substrate incubated for 60 mins by fluorescence spectrophotometric analysis
SARS-CoV-2 [23] = format: functional, organism-based; details: Severe acute respiratory syndrome coronavirus 2, Wuhan-Hu-1, Vero C1008
[24] = biological target: Replicase polyprotein 1ab (Severe acute respiratory syndrome coronavirus 2, UniProt P0DTD1); experiment: Inhibition of SARS-Cov-2 Main protease by FRET assay

T2 sequence (P07711 whole entry): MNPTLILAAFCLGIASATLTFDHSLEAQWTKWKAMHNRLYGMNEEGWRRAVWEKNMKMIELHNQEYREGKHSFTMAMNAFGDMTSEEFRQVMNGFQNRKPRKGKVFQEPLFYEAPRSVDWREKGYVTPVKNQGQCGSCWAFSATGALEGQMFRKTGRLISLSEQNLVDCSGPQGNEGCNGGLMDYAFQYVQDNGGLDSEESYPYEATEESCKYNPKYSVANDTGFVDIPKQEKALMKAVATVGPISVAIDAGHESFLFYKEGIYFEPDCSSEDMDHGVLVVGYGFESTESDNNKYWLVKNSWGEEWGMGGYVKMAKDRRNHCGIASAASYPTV
T1 sequence (Q9Y2I7 whole entry): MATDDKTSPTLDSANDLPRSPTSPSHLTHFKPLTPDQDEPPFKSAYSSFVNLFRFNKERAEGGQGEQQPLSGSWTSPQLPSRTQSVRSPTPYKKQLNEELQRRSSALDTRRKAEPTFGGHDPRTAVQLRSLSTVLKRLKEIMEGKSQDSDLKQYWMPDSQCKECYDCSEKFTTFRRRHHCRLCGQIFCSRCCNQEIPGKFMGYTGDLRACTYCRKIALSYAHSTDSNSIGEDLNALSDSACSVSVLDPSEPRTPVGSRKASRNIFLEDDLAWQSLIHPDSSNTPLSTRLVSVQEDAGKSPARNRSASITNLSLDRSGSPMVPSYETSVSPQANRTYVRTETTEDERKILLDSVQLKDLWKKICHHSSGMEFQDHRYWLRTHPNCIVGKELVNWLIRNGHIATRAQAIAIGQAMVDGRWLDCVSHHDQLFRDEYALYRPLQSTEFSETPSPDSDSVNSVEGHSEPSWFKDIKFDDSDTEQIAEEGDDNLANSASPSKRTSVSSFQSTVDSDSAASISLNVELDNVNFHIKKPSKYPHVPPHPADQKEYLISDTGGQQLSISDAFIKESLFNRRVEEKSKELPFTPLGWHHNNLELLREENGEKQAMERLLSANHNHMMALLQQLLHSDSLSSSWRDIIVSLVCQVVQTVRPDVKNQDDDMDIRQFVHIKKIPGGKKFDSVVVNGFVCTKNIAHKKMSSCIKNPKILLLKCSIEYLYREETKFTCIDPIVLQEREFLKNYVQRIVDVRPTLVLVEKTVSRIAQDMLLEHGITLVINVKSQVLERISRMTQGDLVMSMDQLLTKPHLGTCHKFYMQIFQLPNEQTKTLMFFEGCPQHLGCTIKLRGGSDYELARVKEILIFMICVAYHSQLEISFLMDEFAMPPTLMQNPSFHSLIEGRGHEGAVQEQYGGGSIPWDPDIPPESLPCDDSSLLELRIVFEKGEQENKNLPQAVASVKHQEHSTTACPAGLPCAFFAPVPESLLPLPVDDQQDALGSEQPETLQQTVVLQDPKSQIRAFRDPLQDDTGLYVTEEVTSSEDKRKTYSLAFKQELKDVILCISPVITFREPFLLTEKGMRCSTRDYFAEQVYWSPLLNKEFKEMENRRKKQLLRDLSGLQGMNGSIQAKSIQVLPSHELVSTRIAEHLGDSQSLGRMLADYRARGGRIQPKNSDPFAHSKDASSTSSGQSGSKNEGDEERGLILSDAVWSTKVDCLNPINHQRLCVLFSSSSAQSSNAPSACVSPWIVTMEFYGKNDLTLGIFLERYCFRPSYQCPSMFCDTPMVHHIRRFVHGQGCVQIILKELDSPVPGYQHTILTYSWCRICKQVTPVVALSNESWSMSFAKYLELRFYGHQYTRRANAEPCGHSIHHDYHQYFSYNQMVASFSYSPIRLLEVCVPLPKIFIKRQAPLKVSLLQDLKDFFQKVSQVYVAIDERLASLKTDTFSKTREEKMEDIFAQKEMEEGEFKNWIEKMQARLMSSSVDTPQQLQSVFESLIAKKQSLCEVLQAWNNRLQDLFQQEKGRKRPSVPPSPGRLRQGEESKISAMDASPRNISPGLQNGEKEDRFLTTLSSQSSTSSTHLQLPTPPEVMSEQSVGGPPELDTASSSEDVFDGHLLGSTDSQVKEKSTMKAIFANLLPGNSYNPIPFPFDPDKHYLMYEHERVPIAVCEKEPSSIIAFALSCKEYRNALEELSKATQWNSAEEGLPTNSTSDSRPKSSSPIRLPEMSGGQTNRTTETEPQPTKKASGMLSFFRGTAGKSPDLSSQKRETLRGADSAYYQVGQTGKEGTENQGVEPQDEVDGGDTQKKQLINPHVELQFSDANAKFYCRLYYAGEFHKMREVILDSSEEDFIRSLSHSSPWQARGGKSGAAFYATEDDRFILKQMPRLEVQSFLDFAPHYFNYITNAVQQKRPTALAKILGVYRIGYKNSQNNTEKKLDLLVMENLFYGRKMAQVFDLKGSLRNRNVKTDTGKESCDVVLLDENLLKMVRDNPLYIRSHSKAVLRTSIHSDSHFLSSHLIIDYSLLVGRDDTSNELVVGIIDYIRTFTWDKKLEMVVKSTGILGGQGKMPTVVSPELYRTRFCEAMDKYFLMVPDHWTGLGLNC
Neuropilin-1, sequence (O14786 whole entry): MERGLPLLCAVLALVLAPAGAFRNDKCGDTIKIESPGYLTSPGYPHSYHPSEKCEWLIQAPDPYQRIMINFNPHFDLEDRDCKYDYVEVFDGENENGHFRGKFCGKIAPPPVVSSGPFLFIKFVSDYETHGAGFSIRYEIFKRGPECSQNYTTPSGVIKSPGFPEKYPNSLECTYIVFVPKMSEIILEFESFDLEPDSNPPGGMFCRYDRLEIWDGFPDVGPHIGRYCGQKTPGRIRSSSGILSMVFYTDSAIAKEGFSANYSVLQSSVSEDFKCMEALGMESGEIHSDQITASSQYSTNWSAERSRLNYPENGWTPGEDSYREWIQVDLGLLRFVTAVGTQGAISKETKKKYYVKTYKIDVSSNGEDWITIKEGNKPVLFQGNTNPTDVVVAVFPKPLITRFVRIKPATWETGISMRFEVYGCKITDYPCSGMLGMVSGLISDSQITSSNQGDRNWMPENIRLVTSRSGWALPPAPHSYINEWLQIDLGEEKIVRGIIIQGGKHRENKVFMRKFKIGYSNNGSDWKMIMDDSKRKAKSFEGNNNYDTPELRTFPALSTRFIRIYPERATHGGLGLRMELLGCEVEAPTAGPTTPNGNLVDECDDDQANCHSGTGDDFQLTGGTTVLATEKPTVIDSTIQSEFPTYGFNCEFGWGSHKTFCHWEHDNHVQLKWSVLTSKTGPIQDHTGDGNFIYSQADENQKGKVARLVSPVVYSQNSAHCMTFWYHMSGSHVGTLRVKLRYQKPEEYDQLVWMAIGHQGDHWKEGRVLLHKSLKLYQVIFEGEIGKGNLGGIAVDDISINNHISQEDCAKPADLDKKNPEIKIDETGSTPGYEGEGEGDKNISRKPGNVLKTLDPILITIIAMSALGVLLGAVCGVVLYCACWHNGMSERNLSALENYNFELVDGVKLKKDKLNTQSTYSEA

Cc1nc(N2CCOCC2)ncc1-c1cc(=O)[nH]c(Nc2ccccc2)n1
IC50 (Neuropilin-1): 0.598 nM

CC(=O)N1CCC[C@H]1C(=O)N[C@@H](CCC(N)=O)C(=O)N[C@@H](Cc1ccccc1)C(=O)N[C@@H](CCCNC(=N)N)C(=O)c1nc2ccccc2s1
IC50 (SARS-CoV-2 [1]): 105 nM
EC50 (SARS-CoV-2 [2]): 0.86 nM

Cc1ccc(NC(=O)c2cccc(C(F)(F)F)c2)cc1Nc1nc(-c2ccncc2)c2[nH]ccc2n1
Kd [3]: > 30000 nM
EC50 (SARS-CoV-2 [4]): 12300 nM

N=C(N/N=C/c1ccncc1)c1nonc1NCNc1nonc1C(=N)N/N=C/c1ccncc1
IC50 (SARS-CoV-2 [5]): 16 nM

Cc1ncc(-c2ccc(C3=CCN(C(C)C)CC3)nc2)cc1NC(=O)c1ccc2[nH]c(C)c(C)c2n1
IC50 (RAW264.7): 2 nM

CC[C@@H](C)[C@H](NC(C)=O)C(=O)N[C@@H](CCC(N)=O)C(=O)N[C@@H](Cc1ccccc1)C(=O)N[C@@H](CCCNC(=N)N)C(=O)c1nc2ccccc2s1
IC50 (SARS-CoV-2 [1]): 102 nM
EC50 (SARS-CoV-2 [2]): 3.6 nM

CCc1c(C)[nH]c2ccc(C(=O)Nc3cncc(-c4ccc(N5C[C@@H](C)O[C@@H](C)C5)nc4)c3)nc12
IC50 (RAW264.7): 2.4 nM

Nc1ncc2c(n1)Cc1c([nH]c3ccc(-c4ccc(F)cc4)cc13)CC2
IC50 [6]: 9.3 nM
IC50 (SARS-CoV-2 [7]): 73.3 nM

Cn1nc(C(C)(C)C)cc1C(=O)N[C@@H](Cc1cccc(Cl)c1)C(=O)NCC#N
EC50 (SARS-CoV-2 [8]): 140 nM

CCCC[C@@H](C=O)NC(=O)[C@H](CC(C)C)NC(=O)[C@H](CC(C)C)NC(C)=O (Ac-Leu-Leu-[Nle]-aldehyde)
EC50 (SARS-CoV-2 [9]): 3120 nM

CC(=O)N[C@@H](CO)C(=O)N[C@@H](CCCCN)C(=O)N[C@@H](CC(C)C)C(=O)N[C@@H](CCCNC(=N)N)C(=O)c1nc2ccc(C(=O)N[C@H](C(N)=O)C(C)C)cc2s1 (Ac-SKL[X1]V-NH2)
EC50 (SARS-CoV-2 [10]): 307 nM
EC50 (SARS-CoV-2 [2]): 489 nM

O=C[C@H](Cc1ccc(O)cc1)NC(=O)[C@H](Cc1ccccc1)NC(=O)OCc1ccccc1 (Cbz-Phe-Tyr-aldehyde)
EC50 (SARS-CoV-2 [8]): 620 nM

CC(C)[C@H](NC(=O)OCc1ccccc1)C(=O)N[C@H](C=O)Cc1ccccc1 (Cbz-Val-Phe-aldehyde)
EC50 (SARS-CoV-2 [8]): 1560 nM

CCOC(=O)[C@H]1O[C@@H]1C(=O)N[C@@H](CC(C)C)C(=O)NCCC(C)C [ALOXISTATIN]
EC50 (SARS-CoV-2 [8]): 270 nM

N=C(N)NCCCCC(=O)Nc1cc(C(F)(F)F)cc(NC(=O)c2cc(C(=O)Nc3cc(C(F)(F)F)cc(NC(=O)CCCCNC(=N)N)c3O[C@@H]3CCNC3)ncn2)c1O[C@@H]1CCNC1 [BRILACIDIN]
IC50 (SARS-CoV-2 [11]): 12000 nM
IC50 (SARS-CoV-2 [12]): 12000 nM
IC50 (SARS-CoV-2 [13]): 12000 nM
IC50 (SARS-CoV-2 [14]): 12000 nM

CCCC[C@@H](C=O)NC(=O)[C@H](CC(C)C)NC(=O)OCc1ccccc1 [CALPEPTIN]
EC50 (SARS-CoV-2 [15]): 29800 nM
EC50 (SARS-CoV-2 [16]): 1030 nM

C#Cc1cccc(Nc2ncnc3cc(OCCOC)c(OCCOC)cc23)c1 [ERLOTINIB]
EC50 (SARS-CoV-2 [17]): > 20000 nM
EC50 (SARS-CoV-2 [18]): > 20000 nM

CC(C)C[C@@H](C=O)NC(=O)[C@H](CC(C)C)NC(=O)[C@H](CC(C)C)NC(=O)OCc1ccccc1 [MG-132] (Cbz-Leu-Leu-Leu-aldehyde)
IC50 (Procathepsin L [19]): 12.3 nM
EC50 (SARS-CoV-2 [20]): 212 nM
EC50 (SARS-CoV-2 [21]): 210 nM

CCN(CC)CCNC(=O)c1c(C)[nH]c(/C=C2\C(=O)Nc3ccc(F)cc32)c1C [SUNITINIB]
EC50 (SARS-CoV-2 [17]): 2900 nM
EC50 (SARS-CoV-2 [18]): 2400 nM

N[C@H]1C(=O)N[C@@H]2Cc3ccc(c(Cl)c3)Oc3cc4cc(c3O)Oc3ccc(cc3Cl)[C@@H](O)[C@@H]3NC(=O)[C@H](NC(=O)[C@@H]4NC(=O)[C@@H](NC2=O)c2cc(O)cc(c2)Oc2cc1ccc2O)c1ccc(O)c(c1)-c1c(O)cc(O)cc1[C@@H](C(=O)O)NC3=O [TEICOPLANIN AGLYCON]
IC50 (Procathepsin L [22]): 208000 nM
IC50 (SARS-CoV-2 [23]): 2040 nM
IC50 [24]: 1460 nM
